The values that follow come from US20190350930A1, “COMPOSITION FOR CONTROLLING GASTROESOPHAGEAL REFLUX DISEASES” (bitop AG, priority 2016, published 2019).

For this assay, the system named is mucus-forming epithelial cells TR146. Description: in vitro cell culture model: TR146 cells damaged with acidic HCl/pepsin solution, then incubated with ectoine; cell count by neutral red cytotoxicity assay. The class given is cell-based. To be noted: FIG. 1. The protocol:
The cells were treated with acid solutions containing the digestive enzyme pepsin and following this treated with ectoine. TR146 cells were added to a microplate having 96 wells, with the cells being allowed to grow until the surface was almost completely covered. The cells were then treated for 10 min. with a diluted acidic HCl solution together with pepsin in a cell culture medium. The concentration of pepsin was 2 U/ml. Following this, the cells were washed with PBS (phosphate buffered saline) and incubated overnight either with ectoine or for control purposes with pure solvent. After incubation, a cell count determination was carried out using a […] for which a cyanine-based nucleic acid dye was employed. The assay is based on the fact that the plasma membrane of damaged or dead cells becomes permeable to the dye and the dye binds to the DNA of the cell, which is associated with a corresponding increase in fluorescence. For […] control, cells were treated with 0.1% sodium dodecyl sulfate (SDS) solution as denaturing agent. Other cells (full medium) were not treated with acid/pepsin.

`CC1=NCC[C@@H](C(=O)O)N1` (stereo in doubt) [ectoine, 2-methyl-1,4,5,6-tetrahydropyrimidine-4-carboxylic acid]: the “effect with respect to the regeneration of the cells” value (50 mM ectoine, overnight incubation after 10 min acidic HCl solution with pepsin 2 U/ml) was “excellent effect”. Moreover, the cell viability entry (cells treated with ectoine (50 mM) after acid/pepsin, compared with full-medium cells not treated with acid/pepsin) is “comparable to that of cells that were not subjected to a treatment with an acidic pepsin solution”.
